Experiments:
SKBR3 breast carcinoma = assay: Cell Proliferation Inhibition Assay, SKBR3 (14C-thymidine); format: cell-based; conditions: Homo sapiens, SK-BR-3, C14 method
Excerpt: (§1) Cell Proliferation Inhibition Assay
(§2) The ability of a test compound to inhibit unregulated cell proliferation may be determined by measuring incorporation of ^14C-labelled thymidine into newly synthesized DNA within cell lines derived from carcinomas originating from several tissues. Accordingly, the effect of a test compound on proliferation of cells with a variety of phenotypes may be determined.
(§3) Carcinoma cell lines used include the HeLa cervical adenocarcinoma from the American Type Culture Collection (ATCC Cat. #CCL2), A375 malignant melanoma (ATCC Cat. #CRL-1619), HCT-116 colon carcinoma (ATCC Cat. #CCL-247), SKBR3 breast carcinoma (ATCC Cat. #HTB-30) and BT474 breast carcinoma (ATCC Cat. #HTB-20).
(§4) The carcinoma cells were trypsinized and counted. The cells (3000-8000 count) were added to each well of a 96-well CytoStar tissue culture treated scintillating microplate (Amersham #RPNQ0160) in complete medium (100 μL) and the plate was then incubated in complete medium for 24 hrs at 37° C. in an inert atmosphere containing 5% CO2.
(§5) Test compound (1 μL) in 100% DMSO was added to the plate test-wells with DMSO only added to control-wells. The plate was incubated in complete medium for a second 24 hr period at 37° C. in an atmosphere containing 5% CO2.
(§6) An aliquot of a solution of Methyl ^14C-thymidine (56 mC/mmol) (NEN #NEC568 or AMersham #CFA532) and complete medium (20 uL to provide 0.2 μCl/well) was then added to each well and the plate was incubated for a third 24 hr period at 37° C. in an atmosphere containing 5% CO2.
(§7) The plate contents were then discarded, the plate washed twice with PBS (200 μL) and then PBS (200 μL) was added to each well. The plate was sealed and the degree of methyl ^14C-thymidine incorporation was quantified on a Packard Top Count.
(§8) Cell proliferation of the Hela cell line was measured using the ATP-Lite method as described in the ATP Lite Kit (Perkin-Elmer Kit Number 6106941) or the C^14 method as described above. Cell proliferation of the other cell lines was measured using the C^14 method.

[1] = tested on: HeLa cervical adenocarcinoma; assay: Cell Proliferation Inhibition Assay, Hela (ATP Lite); format: cell-based; conditions: Homo sapiens, ATP-Lite method
Excerpt: as §1, §2, §3, §4, §5, §8

BT474 breast carcinoma = assay: Cell Proliferation Inhibition Assay, BT474 (14C-thymidine); format: cell-based; conditions: Homo sapiens, BT-474, C14 method
Excerpt: as §1, §2, §3, §4, §5, §6, §7, §8

EGFR = target: T1, EGFR (Homo sapiens, UniProt P00533); assay: EGFR Kinase Assay; format: biochemical; conditions: for IC50: GST-EGFR, ATP 5 μM
T1 construct: The intracellular portion of EGFR started at nucleotide 2189 (corresponding to amino acid 667) and ended at the termination codon; made in house; host or cells: Sf9 insect cells (baculovirus)
How it was run: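 GST-fused human EGFR intracellular domain (from aa 667), Sf9-expressed, phosphorylated biotinylated polyGluTyr with 5 μM ATP plus γ-33P ATP in Tris pH 8.0, MgCl2, vanadate, 1 mM DTT, 1 h at 30 °C. Streptavidin Flashplate scintillation read; triplicate 16-point half-log series from 200 uM; IC50 from % inhibition vs log concentration, else % inhibition at 2 μM.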

T1 sequence (P00533 669-1210 limits assumed): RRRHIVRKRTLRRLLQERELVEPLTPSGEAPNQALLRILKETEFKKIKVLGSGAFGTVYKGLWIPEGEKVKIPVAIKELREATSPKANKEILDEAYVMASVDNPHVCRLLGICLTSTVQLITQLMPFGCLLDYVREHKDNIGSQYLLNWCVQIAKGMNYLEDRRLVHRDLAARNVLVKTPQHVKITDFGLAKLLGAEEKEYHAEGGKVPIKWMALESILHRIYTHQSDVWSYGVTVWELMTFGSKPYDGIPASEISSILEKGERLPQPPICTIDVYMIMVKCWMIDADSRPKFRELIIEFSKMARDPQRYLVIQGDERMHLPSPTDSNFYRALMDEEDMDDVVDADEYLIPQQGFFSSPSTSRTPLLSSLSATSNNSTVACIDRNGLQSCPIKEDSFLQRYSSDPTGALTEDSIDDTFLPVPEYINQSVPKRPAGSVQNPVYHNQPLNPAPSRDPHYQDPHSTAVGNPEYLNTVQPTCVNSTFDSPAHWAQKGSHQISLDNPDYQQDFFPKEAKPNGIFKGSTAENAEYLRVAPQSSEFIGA

| SMILES | IC50 (SKBR3 breast carcinoma) [nM] | IC50 [1] [nM] | IC50 (BT474 breast carcinoma) [nM] | IC50 (EGFR) [nM] | inhibition at 2 µM (EGFR; test concentration of 2 μM, compounds without an IC50, read-out: EGFR inhibition in percent) [%] |
| --- | --- | --- | --- | --- | --- |
| O=C(O)c1sc2ncnc3c2c1NC(=O)N3c1ccc(OCc2ccccn2)c(Cl)c1 [Cpd 38, 5-[3-chloro-4-(pyridin-2-ylmethoxy)-phenyl]-4-oxo-4,5-dihydro-3H-1-thia-3,5,6,8-tetraaza-acenaphthylene-2-carboxylic acid] | 100000 | 100000 | ≥ 100000 | 920 | – |
| COc1ccc(NC(=O)c2sc3ncnc4c3c2NC(=O)N4c2ccc(OCc3ccccn3)c(Cl)c2)cc1OC [Cpd 48, 5-[3-chloro-4-(pyridin-2-ylmethoxy)-phenyl]-4-oxo-4,5-dihydro-3H-1-thia-3,5,6,8-tetraaza-acenaphthylene-2-carboxylic acid (3,4-dimethoxy-phenyl)-amide] | 100000 | 100000 | ≥ 10000 | 61 | – |
| O=C(Nc1ccc(NCCCN2CCOCC2)nc1)c1sc2ncnc3c2c1NC(=O)N3c1cccc(Br)c1 [Cpd 64, 5-(3-bromo-phenyl)-4-oxo-4,5-dihydro-3H-1-thia-3,5,6,8-tetraaza-acenaphthylene-2-carboxylic acid [6-(3-morpholin-4-yl-propylamino)-pyridin-3-yl]-amide] | 100000 | 10000 | ≥ 10000 | 159 | – |
| Cc1ccc(Br)cc1N1C(=O)Nc2c(C(=O)Nc3ccc(CN4CCOCC4)cc3)sc3ncnc1c23 [Cpd 109, 5-(5-bromo-2-methyl-phenyl)-4-oxo-4,5-dihydro-3H-1-thia-3,5,6,8-tetraaza-acenaphthylene-2-carboxylic acid (4-morpholin-4-ylmethyl-phenyl)-amide] | – | – | – | 344 | – |
| Cc1ccc(N2C(=O)Nc3c(C(=O)NC4CCN(C)CC4)sc4ncnc2c34)cc1Br [Cpd 116, 5-(3-bromo-4-methyl-phenyl)-4-oxo-4,5-dihydro-3H-1-thia-3,5,6,8-tetraaza-acenaphthylene-2-carboxylic acid (1-methyl-piperidin-4-yl)-amide] | – | – | – | 146 | – |
| Cc1ccc(Br)cc1N1C(=O)Nc2c(C(=O)NC3CCN(C)CC3)sc3ncnc1c23 [Cpd 117, 5-(5-bromo-2-methyl-phenyl)-4-oxo-4,5-dihydro-3H-1-thia-3,5,6,8-tetraaza-acenaphthylene-2-carboxylic acid (1-methyl-piperidin-4-yl)-amide] | – | – | – | 1780 | – |
| CN1CCC(NC(=O)c2sc3ncnc4c3c2NC(=O)N4c2ccc(Oc3ccc(F)cc3)cc2)CC1 [Cpd 118, 5-[4-(4-fluoro-phenoxy)-phenyl]-4-oxo-4,5-dihydro-3H-1-thia-3,5,6,8-tetraaza-acenaphthylene-2-carboxylic acid (1-methyl-piperidin-4-yl)-amide] | – | – | – | 132 | – |
| O=C(Nc1ccc(CN2CCOCC2)cc1)c1sc2ncnc3c2c1NC(=O)N3c1ccc(N2CCOCC2)cc1 [Cpd 123, 5-(4-morpholin-4-yl-phenyl)-4-oxo-4,5-dihydro-3H-1-thia-3,5,6,8-tetraaza-acenaphthylene-2-carboxylic acid (4-morpholin-4-ylmethyl-phenyl)-amide] | – | – | – | – | 11 |

More lines, now with the values ahead:

| IC50 (SKBR3 breast carcinoma) [nM] | IC50 [1] [nM] | IC50 (BT474 breast carcinoma) [nM] | IC50 (EGFR) [nM] | inhibition at 2 µM (EGFR; test concentration of 2 μM, compounds without an IC50, read-out: EGFR inhibition in percent) [%] | SMILES |
| --- | --- | --- | --- | --- | --- |
| 100000 | 100000 | ≥ 100000 | 184 | – | O=C(Nc1ccc(CN2CCOCC2)cc1)c1sc2ncnc3c2c1NC(=O)N3c1cccc(Br)c1 [Cpd 36, 5-(3-bromo-phenyl)-4-oxo-4,5-dihydro-3H-1-thia-3,5,6,8-tetraaza-acenaphthylene-2-carboxylic acid (4-morpholin-4-ylmethyl-phenyl)-amide] |
| 2610 | 27000 | 5980 | 51 | – | O=C(Nc1ccc(CN2CCOCC2)cc1)c1sc2ncnc3c2c1NC(=O)N3c1ccc(OCc2ccccn2)c(Cl)c1 [Cpd 52, 5-[3-chloro-4-(pyridin-2-ylmethoxy)-phenyl]-4-oxo-4,5-dihydro-3H-1-thia-3,5,6,8-tetraaza-acenaphthylene-2-carboxylic acid (4-morpholin-4-ylmethyl-phenyl)-amide] |
| – | – | – | 34 | – | O=C(Nc1ccc(CN2CCOCC2)cc1)c1sc2ncnc3c2c1NC(=O)N3c1ccc(Oc2ccc(F)cc2)cc1 [Cpd 110, 5-[4-(4-fluoro-phenoxy)-phenyl]-4-oxo-4,5-dihydro-3H-1-thia-3,5,6,8-tetraaza-acenaphthylene-2-carboxylic acid (4-morpholin-4-ylmethyl-phenyl)-amide] |
| – | – | – | 21 | – | O=C(Nc1ccc(CN2CCOCC2)cc1)c1sc2ncnc3c2c1NC(=O)N3c1ccc(Oc2ccccc2)c(F)c1 [Cpd 113, 5-(3-fluoro-4-phenoxy-phenyl)-4-oxo-4,5-dihydro-3H-1-thia-3,5,6,8-tetraaza-acenaphthylene-2-carboxylic acid (4-morpholin-4-ylmethyl-phenyl)-amide] |
| 144 | 4280 | 383 | 29 | – | O=C(Nc1ccc(CN2CCCCC2)cc1)c1sc2ncnc3c2c1NC(=O)N3c1ccc(Sc2ccccc2)cc1 [Cpd 169, 4-oxo-5-(4-phenylsulfanyl-phenyl)-4,5-dihydro-3H-1-thia-3,5,6,8-tetraaza-acenaphthylene-2-carboxylic acid (4-piperidin-1-ylmethyl-phenyl)-amide] |
| 292 | 53400 | 158 | 77 | – | O=C(Nc1ccc(CN2CCOCC2)cc1)c1sc2ncnc3c2c1NC(=O)N3c1ccc(Sc2ccccc2)cc1 [Cpd 178, 4-oxo-5-(4-phenylsulfanyl-phenyl)-4,5-dihydro-3H-1-thia-3,5,6,8-tetraaza-acenaphthylene-2-carboxylic acid (4-morpholin-4-ylmethyl-phenyl)-amide] |

Reference: US7579356B2, “Thia-tetraazaacenaphthylene kinase inhibitors” (Janssen Pharmaceutica NV, priority 2005, dated 2009)
